Experimental findings from ChEMBL document CHEMBL1201862, “PubChem BioAssay data set” (2004) are described below.

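Assay format: 96-well plates, 48-hour exposure. GI50: concentration for 50% inhibition of growth.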 The source made the active and inactive calls. Cut-off read from the data, not from the text of the source: active = GI50 up to about 1.1 µM and inactive = higher.

Holding throughout (assay): NCI tumour cell line growth inhibition, 48 h
In assay [1] the test system is LXFL 529.
Assay [2] deals with KM-20L2.
In assay [3] the test system is RXF 631.
Assay [4] has as its system DMS-114.
In assay [5] the test system is DLD-1.
Assay [6] has as its system SNB-78.
Assay [7] relates to XF498.
For assay [8], the system named is DMS-273.
Assay [9] deals with M19-MEL.

Take `Cc1ccc2c(c1)-c1c3c(nn1-c1ccccc1)-c1ccccc1SC3O2` (configuration not stated): the GI50 in assay [1] was > 100 µM (inactive); in assay [2], > 100 µM (inactive); in [3], 2.65 µM (inactive); in [4] it was > 100 µM (inactive); in assay [5], > 100 µM (inactive); in [6], > 100 µM (inactive). For the same compound, the GI50 in assay [7] and in assay [8] was > 100 µM (inactive) throughout.
For `COc1ccc(S(=O)(=O)N[C@H](C(=O)O)c2ccccc2)cc1`, the GI50 in assay [1], in assay [2], in assay [4], in assay [5], in assay [6] and in assay [7] was > 100 µM (inactive) throughout. The GI50 in [8] and in assay [9] was > 100 µM (inactive) in each case.
`C/C(=N\NS(=O)(=O)c1ccc(C)cc1)c1c(O)cc(C)oc1=O`: the GI50 in assay [1], in [2], in assay [5], in assay [6] and in assay [9] was > 100 µM (inactive) throughout.
On to `CCN(CC)CC(O)CNc1ccc(NCC(O)CCl)c2c1C(=O)c1ccccc1C2=O` (configuration not stated), for which the GI50 in [1] is 1.85 µM (inactive); in [2], 4.68 µM (inactive); in assay [5], 8.83 µM (inactive); in [6] it was 6.7 µM (inactive); in assay [7] it was 13.4 µM (inactive); in [8], 3.33 µM (inactive). Further, the GI50 in assay [9] was 6.82 µM (inactive).
Regarding `CCNCCCCNCCCCNCCCCNCCCCNCC`, the GI50 was > 94.8 µM (inactive) in [1]; > 100 µM (inactive) in assay [2]; > 100 µM (inactive) in assay [4]; > 100 µM (inactive) in assay [5]; > 100 µM (inactive) in assay [6]; > 32.8 µM (inactive) in assay [7]. The values for the GI50 in [8] and in [9] were > 49.7 µM (inactive) and > 100 µM (inactive), respectively.
Turning to `COC1(OC)C2(Cl)C(Cl)=C(Cl)C1(Cl)C1c3ccc(C(C)=O)c4cccc(c34)C12` (configuration not stated), the GI50 is 25.6 µM (inactive) in [1]; 4.53 µM (inactive) in assay [2]; 15.9 µM (inactive) in assay [4]; 28.3 µM (inactive) in assay [6]; 3.89 µM (inactive) in [8]; 25.6 µM (inactive) in assay [9].
With `N#CCN1C(=O)c2cccc3cc([N+](=O)[O-])cc(c23)C1=O`, the GI50 was 40.1 µM (inactive) in assay [1]; 45.2 µM (inactive) in assay [2]; 38.7 µM (inactive) in assay [4]; 32 µM (inactive) in assay [5]; 71.6 µM (inactive) in assay [6]; 25.8 µM (inactive) in assay [7]. The GI50 in assay [8] is 30.7 µM (inactive); in [9], 19.8 µM (inactive).
`Cc1cc(C)c(-c2noc(-c3ccc(Cl)cc3)c2C2=NCCN2)c(C)c1`: the GI50 in assay [1] was 19.9 µM (inactive); in assay [2] it was 22.2 µM (inactive); in assay [3], 43.3 µM (inactive); in assay [5] it was 22.4 µM (inactive); in assay [6], 20.1 µM (inactive); in assay [7] it was 21.4 µM (inactive). In assay [9], the GI50 is 35.8 µM (inactive).
In the case of `Cc1cc(C)nc(NS(=O)(=O)c2ccc(Nc3c4ccccc4nc4c(C(=O)N5CCN(CCO)CC5)ccc(Cl)c34)cc2)n1`, the GI50 in [2] was 60.8 µM (inactive); in [3], 85.5 µM (inactive); in assay [4] it was 72.3 µM (inactive); in [6], > 100 µM (inactive); in assay [8] it was > 100 µM (inactive); in assay [9], 76 µM (inactive).
On to `CCOC(=O)C(=O)Nc1ccc(C)cc1C`, for which the GI50 in assay [1], in [4], in assay [5], in [6] and in assay [9] was > 100 µM (inactive) in each case.
Turning to `S=c1[nH]nc(Cc2ccccc2)c(=S)[nH]1`, the GI50 in [1] is > 100 µM (inactive); in [3], > 100 µM (inactive); in assay [5] it was 94.8 µM (inactive); in [6] it was > 100 µM (inactive); in [7], > 100 µM (inactive); in [8], > 100 µM (inactive). Besides, in [9], the GI50 is > 100 µM (inactive).
With `C#CCNC(=O)NCCCCC(NC(C)=O)C(=O)NCc1ccccc1` (configuration not stated), the GI50 in assay [1], in [2], in assay [3], in assay [4], in assay [5] and in [6] was > 100 µM (inactive) each time. The GI50 was 0.101 µM (active) in [7] and > 100 µM (inactive) in [9].
With `CCC/C(=N\NC(=S)N1CC2CCC(CC2)C1)c1ccccn1`, the GI50 was 0.0113 µM (active) in [1]; 0.0145 µM (active) in assay [2]; 0.0118 µM (active) in assay [5]; 0.344 µM (active) in [6]; 0.00543 µM (active) in assay [7]; 0.00839 µM (active) in [8].
In the case of `CC(C)c1cc2c(O)c(c1)Cc1cc(C(C)C)cc(c1O)Cc1cc(C(C)C)cc(c1O)Cc1cc(C(C)C)cc(c1O)Cc1cc(C(C)C)cc(c1O)Cc1cc(C(C)C)cc(c1O)C2`, the GI50 in assay [1], in [2], in assay [4], in assay [5], in assay [6] and in assay [7] was > 100 µM (inactive) each time. Moreover, the GI50 in assay [8] and in assay [9] was > 100 µM (inactive) each time.
Consider `CN1CCC(SC2Cc3cc(Cl)ccc3Sc3ccccc32)CC1` (configuration not stated), for which the GI50 in [1] is 13.1 µM (inactive); in [2], 5.27 µM (inactive); in [3], 13.3 µM (inactive); in [5], 14 µM (inactive); in assay [7] it was 16 µM (inactive); in [8], 12.5 µM (inactive). Further, the GI50 in assay [9] was 12.7 µM (inactive).
For `CC1OC(OP(=O)(OCc2ccccc2)OCc2ccccc2)C(OC(=O)c2ccccc2)C(OC(=O)c2ccccc2)C1I` (configuration not stated), the GI50 in [1] was 41.8 µM (inactive); in [2] it was 51.2 µM (inactive); in [5], 50 µM (inactive); in assay [7], > 100 µM (inactive); in assay [8], 53 µM (inactive); in assay [9], 61.5 µM (inactive).
Take `O=C(/C=C/c1ccccc1F)c1ccc([N+](=O)[O-])cc1`: the GI50 was 16.6 µM (inactive) in assay [1]; 30.8 µM (inactive) in [2]; 17.1 µM (inactive) in assay [4]; 16.6 µM (inactive) in [5]; 37.2 µM (inactive) in assay [6]; 19.6 µM (inactive) in [7]. The GI50 in [8] is 36.3 µM (inactive); in assay [9], 22.2 µM (inactive).
As to `N=S(c1ccccc1)c1ccccc1[N+](=O)[O-]` (configuration not stated), the GI50 in [1] is 16.6 µM (inactive); in assay [2], 21 µM (inactive); in [4] it was 18.2 µM (inactive); in assay [5], 18.6 µM (inactive); in assay [6], 36.1 µM (inactive); in assay [7], 3.16 µM (inactive). The GI50 in assay [8] is 18.4 µM (inactive); in assay [9], 12.3 µM (inactive).
Regarding `Cc1ccc(S(=O)(=O)NCCCN(CCCNS(=O)(=O)c2ccc(C)cc2)S(=O)(=O)c2ccc(C)cc2)cc1`, the GI50 in assay [1], in assay [2], in assay [4], in assay [5], in assay [6] and in assay [8] was > 100 µM (inactive) throughout. Also, the GI50 in assay [9] is > 100 µM (inactive).
In the case of `COc1ccc(NC(=O)C/C(C)=N\N=C(N)N)c([N+](=O)[O-])c1`, the GI50 was > 100 µM (inactive) in [1]; > 100 µM (inactive) in assay [2]; > 100 µM (inactive) in assay [4]; 34.5 µM (inactive) in assay [5]; > 100 µM (inactive) in assay [6]; > 100 µM (inactive) in [7]. In addition, the GI50 in assay [8] and in assay [9] was > 100 µM (inactive) throughout.
As for `COC(=O)C(=O)CC(=O)CCn1[nH]c(=O)c(Cl)c(Cl)c1=O`, the GI50 in assay [1], in [2], in assay [4], in assay [5], in assay [6] and in assay [7] was > 100 µM (inactive) throughout. Further, the GI50 in [8] and in assay [9] was > 100 µM (inactive) throughout.
On to `c1ccc2c(c1)SC(=C1Sc3ccccc3S1)S2`, for which the GI50 is > 100 µM (inactive) in assay [1]; > 100 µM (inactive) in assay [2]; > 100 µM (inactive) in assay [3]; 69.8 µM (inactive) in [4]; > 100 µM (inactive) in assay [5]; > 100 µM (inactive) in assay [6]. Further, the GI50 in assay [7], in [8] and in assay [9] was > 100 µM (inactive) throughout.
`N#CC1(Cc2ccc(N)cc2)c2ccccc2C=CN1C(=O)c1ccccc1` (configuration not stated): the GI50 in assay [1] was 35.8 µM (inactive); in assay [2], 34.1 µM (inactive); in [4], 38.8 µM (inactive); in assay [5] it was 40 µM (inactive); in assay [6] it was 47.9 µM (inactive); in assay [7], 28.9 µM (inactive). Moreover, the GI50 in assay [8] is 47.1 µM (inactive); in assay [9], 40.1 µM (inactive).
On to `ClCCN(CC#CCCCC#CCN(CCCl)CCCl)CCCl`, for which the GI50 is 12.4 µM (inactive) in assay [1]; 13.8 µM (inactive) in assay [2]; 10.8 µM (inactive) in assay [3]; 3.01 µM (inactive) in assay [4]; 15.6 µM (inactive) in [5]; 17.2 µM (inactive) in assay [6]. Also, the GI50 is 4 µM (inactive) in assay [8] and 12.1 µM (inactive) in [9].
On to `CC[C@H]1CN2CCc3cc(OC)c(OC)cc3[C@@H]2C[C@@H]1C[C@H]1NCCc2c1[nH]c1ccc(O)cc21` [TUBULOSINE], for which the GI50 in [1] was 0.0202 µM (active); in assay [2], 0.0153 µM (active); in assay [4], < 0.01 µM (active); in assay [5], 0.0279 µM (active); in assay [6] it was 0.0136 µM (active); in assay [7], 0.0188 µM (active). In addition, the GI50 in assay [8] and in assay [9] was < 0.01 µM (active) in each case.
